Experiments:
diabetic ob/ob mice = experiment: Blood glucose and glucose tolerance test in diabetic ob/ob mice; format: in vivo, mouse
Description: Male C57BL/6 and C57BL/6 ob/ob mice were purchased from The Jackson Laboratory (Bar Harbor, Me.), and Sprague-Dawley (SD) rats were purchased from Charles River Laboratories (Wilmington, Mass.). The animals were maintained and bred under specific pathogen-free conditions and provided with sterile food and water ad libitum at the Animal Resources Centre, Faculty of Medicine, University of Calgary. The use and care of the animals used in this study were approved by the Animal Care Committee, Faculty of Medicine, University of Calgary.
DHH105 was dissolved in DMSO and emulsified in olive oil (1:50 v/v). […] Blood glucose levels were measured with a glucometer (One Touch Ultra, Lifescan, Milpitas, Calif.) every morning between 9:00–10:00 a.m. just before injection of DHH105.
To determine whether treatment with DHH105 can decrease the blood glucose level in STZ-induced diabetic C57BL/6 mice (blood glucose levels>300 mg/dl), mice were treated with DHH105 (150 mg/kd) daily for 2 weeks. […] Blood glucose levels were measured at 0, 15, 30, 60, and 120 min after glucose injection.
The blood glucose lowering effect was further determined in ob/ob mice, a model of type 2 diabetes. […]

[1] = Body weight and gross liver observation in DHH105-treated mice; format: in vivo, mouse
Experimental: First, the effect of DHH105 on the non-fasting blood glucose level in ob/ob mice, an animal model of type 2 diabetes, was examined in vivo. […] DHH105 was dissolved in DMSO and emulsified in olive oil (1:50 v/v). DHH105, at a dose of 150 mg/kg body weight (b.w.) in 100 μl, was injected intraperitoneally (i.p.) every day into diabetic ob/ob mice (blood glucose level>230 mg/dl) and STZ-treated diabetic C57BL/6 mice (blood glucose level>300 mg/dl). Control mice received the same amount of olive oil without DHH105. Blood glucose levels were measured with a glucometer (One Touch Ultra, Lifescan, Milpitas, Calif.) every morning between 9:00–10:00 a.m. just before injection of DHH105.

[2] = test system: isolated rat epididymal adipocytes; experiment: Glucose transport assay (2-DOG uptake); format: cell-based
IR-β = target: T1, IR-β (Mus musculus, UniProt P15208); experiment: Phosphorylation of IR-β in adipose tissue of treated diabetic mice; format: in vivo; settings: 2 weeks of DHH105 treatment
T1 construct: from tissue; host or cells: fat (adipose) tissue of STZ-induced diabetic C57BL/6 mice and ob/ob mice
Experimental: Adipocytes treated with DHH105 for 2 h or insulin for 10 min were homogenized in 5 ml lysis buffer (20 mM Tris, pH 7.4, 1% SDS, 10% glycerol, 150 mM NaCl, 2 mM EDTA, 20 mM NaF, 1 mM NaVO4, 2 mM sodium pyrophosphate, protease inhibitor cocktail, and phosphatase inhibitor cocktail) with a teflon pestle (15 strokes). Homogenized adipocytes were sonicated for 3 min and solubilized for 30 min. The homogenate was centrifuged at 3,000 g for 10 min at 4° C. The protein concentration of the lysate was determined by the Bradford method. After dilution (1 μg/μl protein concentration), the lysates were incubated with anti-insulin receptor-β (IR-β) antibody (Upstate Biotech, Charlottesville, Va.) or anti-IRS-1 antibody (Upstate Biotech) overnight at 4° C. Protein A Sepharose beads (100 μl, Amersham Pharmacia Biotech) were added and the mixture was gently rocked for 2 h at 4° C. […] The membranes were washed and the immunoreactive proteins were detected with an enhanced chemoluminescence western blot detection kit (Amersham Pharmacia Biotech). To examine whether in vivo treatment of STZ-induced diabetic C57BL/6 mice or ob/ob mice with DHH105 also increases phosphorylation of IR-β, and IRS-1, fat tissue was removed from the mice after 2 weeks of DHH105 treatment and phosphorylation of IR-β and IRS-1 was measured by immunoprecipitation and western blot.

[3] = 500 μM, 4 h, 2-DOG 0.125 to 10.0 mM, Lineweaver-Burk

T1 sequence (P15208 753-1372 limits assumed): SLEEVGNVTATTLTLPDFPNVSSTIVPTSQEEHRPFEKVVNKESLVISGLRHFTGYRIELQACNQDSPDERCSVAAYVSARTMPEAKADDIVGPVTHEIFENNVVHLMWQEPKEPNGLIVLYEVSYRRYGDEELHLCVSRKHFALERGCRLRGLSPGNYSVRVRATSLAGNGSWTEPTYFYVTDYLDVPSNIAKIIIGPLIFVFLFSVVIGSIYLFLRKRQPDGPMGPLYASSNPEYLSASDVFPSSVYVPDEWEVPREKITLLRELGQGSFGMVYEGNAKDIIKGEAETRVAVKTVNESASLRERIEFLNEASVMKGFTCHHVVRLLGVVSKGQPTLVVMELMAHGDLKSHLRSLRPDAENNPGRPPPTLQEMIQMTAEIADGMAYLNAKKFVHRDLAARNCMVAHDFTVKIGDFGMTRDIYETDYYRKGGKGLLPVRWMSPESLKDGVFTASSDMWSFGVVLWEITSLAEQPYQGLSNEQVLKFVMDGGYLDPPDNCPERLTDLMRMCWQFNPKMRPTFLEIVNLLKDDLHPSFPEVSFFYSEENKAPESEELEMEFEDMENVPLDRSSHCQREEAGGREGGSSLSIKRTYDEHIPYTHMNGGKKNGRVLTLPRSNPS
T1 sequence (P15208 28-748 limits assumed): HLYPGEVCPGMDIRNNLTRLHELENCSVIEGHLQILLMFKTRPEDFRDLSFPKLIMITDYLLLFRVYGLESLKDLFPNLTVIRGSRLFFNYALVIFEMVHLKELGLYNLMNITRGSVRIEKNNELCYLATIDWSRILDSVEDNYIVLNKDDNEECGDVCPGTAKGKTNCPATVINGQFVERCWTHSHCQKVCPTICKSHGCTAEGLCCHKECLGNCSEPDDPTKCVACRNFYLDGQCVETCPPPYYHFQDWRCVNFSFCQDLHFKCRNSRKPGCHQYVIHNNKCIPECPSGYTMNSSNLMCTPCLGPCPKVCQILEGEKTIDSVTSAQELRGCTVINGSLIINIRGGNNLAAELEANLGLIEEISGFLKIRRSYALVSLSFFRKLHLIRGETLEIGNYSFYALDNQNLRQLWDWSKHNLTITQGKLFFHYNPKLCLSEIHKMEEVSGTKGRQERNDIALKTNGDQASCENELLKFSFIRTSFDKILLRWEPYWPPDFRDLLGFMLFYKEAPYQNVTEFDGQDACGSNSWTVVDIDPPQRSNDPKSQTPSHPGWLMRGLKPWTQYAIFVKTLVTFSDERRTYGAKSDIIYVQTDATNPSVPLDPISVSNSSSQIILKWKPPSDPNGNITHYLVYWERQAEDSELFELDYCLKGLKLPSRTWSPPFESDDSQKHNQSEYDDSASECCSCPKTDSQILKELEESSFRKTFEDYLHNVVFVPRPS

O=C(CCc1ccc(O)c(O)c1)OCc1cccc2ccccc12 [DHH105, 3,4-dihydroxyhydrocinnamic acid naphthalene methyl ester]
time after first injection at which blood glucose levels began to decrease (diabetic ob/ob mice; 150 mg/kg i.p. daily): 4 days
blood glucose levels vs vehicle-treated control mice (diabetic ob/ob mice; 150 mg/kg i.p. daily for 2 weeks): significantly lower
gross lesions of the liver ([1]; DHH105-treated mice): no gross lesions
body weight, treated vs untreated mice ([1]; DHH105-treated vs untreated mice): no differences
effect on insulin-stimulated glucose transport ([2]; 500 μM DHH105 3.5 h, then insulin 30 min): did not influence
Km value, DHH105-treated vs control adipocytes ([2]; 500 μM, 4 h): no difference
Km [2, 3]: 1780 ± 380 µM
Vmax of glucose transport [2, 3]: 17.14±0.25 mmol/3 min
Vmax of glucose transport relative to untreated control adipocytes ([2]; 500 μM, 4 h, Lineweaver-Burk): 3 fold
incubation time from which 2-DOG uptake was increased ([2]; rat adipocytes, 500 μM): 1 h
increase of glucose transport vs untreated control at optimum concentration ([2]; rat adipocytes, 4 h, DHH105 500 μM, glyburide 25 μM, metformin 250 μM, troglitazone 100 μM): 4 fold
concentration at which 2-DOG uptake peaked ([2]; rat adipocytes, 4 h treatment): 500 µM
effect on glucose transport compared with other anti-diabetic drugs ([2]; rat adipocytes, doses of 500 μM or more): significantly higher effect
phosphorylation of IR-β in adipose tissue (IR-β; STZ-induced diabetic C57BL/6 mice): increased
phosphorylation of IR-β in adipose tissue (IR-β; ob/ob mice): increased
